The text below walks through data of US11071731B2, “Allosteric modulators of the mu opioid receptor” (Chiromics, LLC, priority 2017, dated 2021).

SMILES strings stand for the structures.

Experiment [1] has as its target T1, mu opioid receptor (MOR) (Homo sapiens, UniProt P35372). In words: PathHunter β-arrestin recruitment assay, PAM mode with EC20 endomorphin-1. Format: cell-based. In outline:
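Enzyme fragment complementation read-out: β-gal ED fragment fused to receptor, EA fused to β-arrestin, recruitment restoring β-gal activity detected by chemiluminescence. EC50 and percent maximal response derived for each compound.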

Experiment [2] concerns the target T1, mu opioid receptor (MOR). In words: Hit Hunter cAMP signaling assay (adenylyl cyclase inhibition), PAM mode with EC20 endomorphin-1. It counts as cell-based.
Where [3] appears, read: maximal response for β-arrestin recruitment.
Where [4] appears, read: β-arrestin recruitment, read-out: β-arr. EC50.
Where [5] appears, read: cAMP EC50, adenylyl cyclase inhibition.
Setting [6] is: maximal response for adenylyl cyclase inhibition.
[7] abbreviates: adenylyl cyclase inhibition, read-out: cAMP EC50.
The mark [8] stands for this setting: maximal response, β-arrestin recruitment.
Where [9] appears, read: maximal response, adenylyl cyclase inhibition.

T1 sequence (P35372 whole entry, the tested form may be a part): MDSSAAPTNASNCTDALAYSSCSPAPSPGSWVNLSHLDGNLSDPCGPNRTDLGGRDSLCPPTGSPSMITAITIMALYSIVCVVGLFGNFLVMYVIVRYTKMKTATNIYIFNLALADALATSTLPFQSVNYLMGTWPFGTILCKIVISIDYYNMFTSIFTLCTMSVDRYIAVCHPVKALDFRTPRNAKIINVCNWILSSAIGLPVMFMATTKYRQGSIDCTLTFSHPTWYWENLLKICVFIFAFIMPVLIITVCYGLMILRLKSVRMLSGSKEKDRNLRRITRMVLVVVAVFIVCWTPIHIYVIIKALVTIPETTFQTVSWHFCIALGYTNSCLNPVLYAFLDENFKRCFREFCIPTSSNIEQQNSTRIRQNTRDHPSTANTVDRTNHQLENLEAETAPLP

As for `Fc1ccc(C2CCCCN2c2nc(Cl)ncc2F)cc1Br` (centres unmarked) [compound 124], at mu opioid receptor (MOR) [1] (setting [3]), the “β-arr Max. Resp.” value is given as “F (F represents a maximal response of > 60%)”. The EC50 at mu opioid receptor (MOR) [1] (setting [4]) and at mu opioid receptor (MOR) [2] (setting [5]) was less than 700 nM each time. For the same compound, at mu opioid receptor (MOR) [2] (setting [6]), the “cAMP Max. Resp.” value is “E (E represents a maximal response of 40-60%)”.

As for `Fc1ccc(C2CCCCN2c2nc(Cl)ncc2F)cc1F` (centres unmarked) [compound 129], the “β-arr Max. Resp.” value on mu opioid receptor (MOR) [1] (setting [3]) is “F (F represents a maximal response of > 60%)”. The EC50 on mu opioid receptor (MOR) [1] (setting [4]) is less than 700 nM; at mu opioid receptor (MOR) [2] (setting [5]) it was 700 to 2100 nM. Moreover, the “cAMP Max. Resp.” value on mu opioid receptor (MOR) [2] (setting [6]) is on record as “E (E represents a maximal response of 40-60%)”.

In the case of `Cc1cc(C2C(C)CCN2S(=O)(=O)c2ccc(Cl)cc2)ccc1F` (mixture of isomers) [Compound 101], at mu opioid receptor (MOR) [1] (setting [3]), the “β-arr Max. Resp.” value was “F (F represents a maximal response of > 60%)”. Moreover, the results for the half-maximal effective concentration (EC50) on mu opioid receptor (MOR) [1] (setting [4]) and at mu opioid receptor (MOR) [2] (setting [7]) were 700 to 2100 nM and less than 700 nM, respectively. Besides, the “cAMP Max. Resp.” value on mu opioid receptor (MOR) [2] (setting [6]) was “D (D represents a maximal response of < 40%)”.

`[2H]C1(c2cccc(C(F)(F)F)c2)C(F)CCCN1c1nc(Cl)ncc1F` (single isomer, unassigned) [compound 209]: at mu opioid receptor (MOR) [1] (setting [3]), the “β-arr Max. Resp.” value is recorded as “F (F represents a maximal response of > 60%)”. Further, the EC50 at mu opioid receptor (MOR) [1] (setting [4]) was in the range of 700 to 2100 nM. Also, the “cAMP Max. Resp.” value on mu opioid receptor (MOR) [2] (setting [6]) is given as “D (D represents a maximal response of < 40%)”.

For `O=S(=O)(Cc1ccc(Cl)c(Cl)c1)N1C2CCC(C2)C1c1ccc(F)c(Br)c1` (centres unmarked) [Compound 181], the “β-arr Max. Resp.” value at mu opioid receptor (MOR) [1] (setting [3]) is “E (E represents a maximal response of 40-60%)”. The EC50 at mu opioid receptor (MOR) [1] (setting [4]) and on mu opioid receptor (MOR) [2] (setting [7]) was greater than 2100 nM throughout. Besides, on mu opioid receptor (MOR) [2] (setting [6]), the “cAMP Max. Resp.” value was “D (D represents a maximal response of < 40%)”.

In the case of `O=S(=O)(Cc1ccccc1Cl)N1C2CCC(C2)C1c1ccc(F)c(Br)c1` (centres unmarked) [Compound 183], at mu opioid receptor (MOR) [1] (setting [3]), the “β-arr Max. Resp.” value is reported as “E (E represents a maximal response of 40-60%)”. Also, the EC50 at mu opioid receptor (MOR) [1] (setting [4]) and on mu opioid receptor (MOR) [2] (setting [7]) was greater than 2100 nM throughout. Moreover, the “cAMP Max. Resp.” value on mu opioid receptor (MOR) [2] (setting [6]) is on record as “D (D represents a maximal response of < 40%)”.

As to `Fc1ncc(F)c(N2CCCCC2c2cccc(C(F)(F)F)c2)n1` (centres unmarked) [compound 368], the “β-arr Max. Resp.” value at mu opioid receptor (MOR) [1] (setting [3]) is recorded as “D (D represents a maximal response of < 40%)”. Further, the EC50 at mu opioid receptor (MOR) [1] (setting [4]) and at mu opioid receptor (MOR) [2] (setting [5]) was less than 700 nM each time. Further, the “cAMP Max. Resp.” value on mu opioid receptor (MOR) [2] (setting [6]) was “D (D represents a maximal response of < 40%)”.

Consider `Fc1ccc(C2CCCCN2c2nc(Cl)ncc2F)cc1C(F)(F)F` (single isomer, unassigned) [compound 422], for which the “β-arr Max. Resp.” value at mu opioid receptor (MOR) [1] (setting [8]) is listed as “D (D represents a maximal response of < 40%)”. Also, the EC50 on mu opioid receptor (MOR) [1] (setting [4]) and at mu opioid receptor (MOR) [2] (setting [5]) was less than 700 nM each time. At mu opioid receptor (MOR) [2] (setting [9]), the “cAMP Max. Resp.” value is reported as “D (D represents a maximal response of < 40%)”.

With `FC(F)(F)c1cccc(C2CCCCN2Cc2cncc(Cl)c2)n1` (centres unmarked) [compound 143], the “β-arr Max. Resp.” value at mu opioid receptor (MOR) [1] (setting [3]) is “D (D represents a maximal response of < 40%)”. Also, the EC50 on mu opioid receptor (MOR) [1] (setting [4]) and at mu opioid receptor (MOR) [2] (setting [5]) was greater than 2100 nM each time. Also, at mu opioid receptor (MOR) [2] (setting [6]), the “cAMP Max. Resp.” value is “D (D represents a maximal response of < 40%)”.

`FC(F)(F)c1cccc(C2CCCCN2Cc2ccnc(Cl)c2)n1` (centres unmarked) [compound 166]: at mu opioid receptor (MOR) [1] (setting [3]), the “β-arr Max. Resp.” value is “F (F represents a maximal response of > 60%)”. Further, the EC50 on mu opioid receptor (MOR) [1] (setting [4]) and on mu opioid receptor (MOR) [2] (setting [5]) was greater than 2100 nM each time. Also, the “cAMP Max. Resp.” value at mu opioid receptor (MOR) [2] (setting [6]) is “E (E represents a maximal response of 40-60%)”.

In the case of `[2H]C1(c2cccc(C(F)(F)F)c2)C(F)CCCN1Cc1cccc(Br)c1` (centres unmarked) [compound 206], on mu opioid receptor (MOR) [1] (setting [3]), the “β-arr Max. Resp.” value is reported as “F (F represents a maximal response of > 60%)”. Moreover, the EC50 at mu opioid receptor (MOR) [1] (setting [4]) and at mu opioid receptor (MOR) [2] (setting [5]) was 700 to 2100 nM in each case. Also, the “cAMP Max. Resp.” value at mu opioid receptor (MOR) [2] (setting [6]) is on record as “E (E represents a maximal response of 40-60%)”.

`O=S(=O)(c1ccc(Cl)cc1)N1CCCCC1c1cc(F)cc(C(F)(F)F)c1` (racemic) [compound 72]: the “β-arr Max. Resp.” value on mu opioid receptor (MOR) [1] (setting [3]) was “F (F represents a maximal response of > 60%)”. Further, at mu opioid receptor (MOR) [1] (β-arrestin recruitment, activity switching by MOR PAMs), the “β-arrestin Max Response” value is “F (F represents a maximal response of >60%)”. Moreover, the EC50 at mu opioid receptor (MOR) [1] (β-arrestin recruitment, activity switching by MOR PAMs, read-out: β-arrestin EC50) is 700 to 2100 nM; on mu opioid receptor (MOR) [1] (setting [4]), 700 to 2100 nM; on mu opioid receptor (MOR) [2] (adenylyl cyclase inhibition, activity switching by MOR PAMs, read-out: cAMP EC50), less than 700 nM; on mu opioid receptor (MOR) [2] (setting [7]) it was less than 700 nM. Further, at mu opioid receptor (MOR) [2] (adenylyl cyclase inhibition, activity switching by MOR PAMs), the “cAMP Max Resp.” value is on record as “D (D represents a maximal response of < 40%)”. Moreover, the “cAMP Max. Resp.” value on mu opioid receptor (MOR) [2] (setting [6]) is recorded as “D (D represents a maximal response of < 40%)”.

For `COC(=O)c1ccc(N2CCCCC2c2ccc(F)c(Cl)c2)cc1` (centres unmarked) [compound 477], the “β-arr Max. Resp.” value on mu opioid receptor (MOR) [1] (setting [8]) was “F (F represents a maximal response of > 60%)”. Besides, the EC50 at mu opioid receptor (MOR) [1] (setting [4]) and at mu opioid receptor (MOR) [2] (setting [5]) was greater than 2100 nM in each case. Besides, on mu opioid receptor (MOR) [2] (setting [9]), the “cAMP Max. Resp.” value is given as “D (D represents a maximal response of < 40%)”.

Turning to `FC(F)(F)c1cccc(C2CCCCN2Cc2ccc(Cl)c(Cl)c2)n1` (centres unmarked) [compound 153], the “β-arr Max. Resp.” value on mu opioid receptor (MOR) [1] (setting [3]) is given as “F (F represents a maximal response of > 60%)”. In addition, the EC50 on mu opioid receptor (MOR) [1] (setting [4]) and at mu opioid receptor (MOR) [2] (setting [5]) was greater than 2100 nM in each case. Also, the “cAMP Max. Resp.” value at mu opioid receptor (MOR) [2] (setting [6]) is “D (D represents a maximal response of < 40%)”.
